From patent US20010025105A1, “Certain substituted 1-aryl-3-piperazine-1'-yl propanones” (Molecular Geriatarics Corporation, priority 1997, published 2001)

Test system: microtubule cytoskeleton of human CG neuroblastoma cells
Test: Antimicrotubule activity, tubulin immunofluorescence microscopy
Format: cell-based
Conditions: 2 hr at 37° C., read-out: Concentration where microtubule destabilization occurs
Experimental: The compounds of the invention according to formula I are effective in destabilizing microtubules, thus are useful in treating certain neoplastic diseases. Indirect immunofluorescence microscopy using the monoclonal antibodies to tubulin is used herein to determine the activity of the compounds of this invention in promoting depolymerization of the microtubule cytoskeleton in cultured cells. The following assay was employed.
Cultured human CG neuroblastoma cells were seeded 1:3 from confluent cultures onto sterile 11×22 mm coverslips in 6 well tissue culture plates 16 hr prior to treatment. The following day, the tissue culture medium is removed and the cells are exposed to various concentrations of compounds of this invention in Krebs Ringer Hepes (KRH) buffer containing a final concentration of 0.5% DMSO as carrier. Incubations were performed at 37° C. in a humidified 5% CO2 atmosphere for 2 hr. After incubation, the cells were fixed in 3% TEM grade formaldehyde in PBS for 45 min at room temperature.
To visualize the effects of the compounds of the invention on the microtubule cytoskeleton, the cells were processed for tubulin immunofluorescence. Briefly, the cells were permeabilized in 0.5% Triton-X 100 in PBS for 5 min. The cells were washed 2× with PBS and aldehydes reduced using 0.5 mg/ml NaBH4 in PBS for 5 min. Subsequently, the cells were blocked for 10 min in 1.5% BSA and 1.5% nonfat dry milk in PBS (blocking solution, BS) for 10 min. The cells were then incubated for 30 min at 37° C. with the monoclonal antibody Tu27B which recognizes b-tubulin (dilution 1:20 in BS). Subsequently, the cells were washed 2× in PBS and once in BS. The cells were then incubated for 30 min at 37° C. with sheep antimouse IgG conjugated to FITC. After incubation, the cells were washed 2× in PBS and once in BS and incubated for 30 min at 37° C. with rabbit antisheep IgG conjugated to FITC. The cells were rinsed in PBS, counterstained with Hoechst 33285 in PBS (1 μg/ml), and rinsed in PBS. The coverslips were mounted in 9:1 glycerol:PBS containing 1 mg/ml p-phenylenediamine and sealed with nail polish.
The cells were viewed using a Jenalumar epifluorescence microscope equipped with the proper filters for Fluorescein Isothiocyanate (FITC) excitation and emission. Lack of effect of a compound is evidenced by the presence of an intact microtubule network in interphase cells, or a mitotic spindle in dividing cells. Antineoplastic compounds of the invention at effective doses result in the disappearance of microtubules in both interphase and mitotic cells.

SMILES: Cl.Cl.O=C(CCN1CCN(Cc2ccccc2)CC1)c1ccc(F)c2ccccc12 [Example 21, 1-(4″-Fluoronaphth-1″-yl)-3-(4′-benzyl-1′-piperazinyl)-1-propanone dihydrochloride]
- minimal effective concentration: 20 µM
